Test results published in US6780608B1, “Human type 3 ryanodine receptor protein and DNA molecules coding therefor” (priority 1997, dated 2004).
“Also recorded” adds a separate entry of the source.

What was measured:
[1] = system: chimeric RyR from rabbit RyR2 and human RyR3; assay: Intracellular calcium signal (fluo-3) in dyspedic myotubes injected with chimeric human RyR3 cDNA; format: cell-based; conditions: 1 mM caffeine, local injection; dyspedic myotubes expressing chimeric human RyR3; n=5 out of 20 reacted
Excerpt: (§1) The cDNA insert was constructed from the following fragments: EcoRI(vector)/MroI(1232) obtained from IhBRR22, MroI(1232)/HindIII(2956) from IhBRR61, HindIII(2956)/BcII(3506) from IhBRR501, BcII(3506)/PmaCI(4750) from IhBRR51, PmaCI(4750)/PstI(7339) from IhBRR53, PstI(7339)/ClaI(9559) from IhBRR411, ClaI(9559)/SpeI(10569) from IhBRR79, SpeI(10569)/ApaI(11451) from IhBRR407, ApaI(11451)/EcoRI(11815) from IhBRR502, EcoRI(11815)/EcoRI(14861) from IhBRR91. The expression plasmid of the chimeric ryanodine receptor cDNA from human RyR3 and rabbit RyR2 was constructed as follows: the SalI(vector)/PmaCI(5038) fragment was rabbit RyR2 cDNA (Nakai, J. et al. FEBS Lett. 271 (1990), 169-177) and the PmaCI(4750)/NotI(vector) fragment from human RyR3-cDNA was ligated into the SalI/NotI cutting site of pCI-neo. Cultures of myotubes from RyR1-deficient (dyspedic) mice and cDNA injection are already known (Nakai, J. et al., Nature 380, (1996), 72-75). Changes in fluorescence (dimensionless random units) were measured after loading the myotubes with fluo-3 AM (Garcia, J., and Beam, K. G., J. Gen. Physiol. 103, (1994), 107-123). […] The washing solution used was normal Nager-Ringer solution of the following composition (mM): 145 NaCl, 5 KCl, 2 CaCl2, 1 MgCl2, 10 HEPES, pH 7.4 adjusted using NaOH. The temperature was 20-22° C.

[2] = system: U373 cells; assay: Intracellular calcium (aequorin luminescence) in U373 cells; format: cell-based, human; conditions: for increase in intracellular calcium after addition of ryanodine: ryanodine 100 mM as printed, U373 cells, n=2 out of 4 react, 2 out of 4 do not react
Procedure: (§2) The luminescence was determined using the method recently published (Maeda, A. et al., Anal. Biochem. 242, (1996), 58-66). To do this the cells (1×10^5 cells/vessel) were transferred into the solution of the calcium assay having the following composition (mM): 140 NaCl, 5 KCl, 1.5 MgCl2, 2.5 CaCl2, 5 glucose and 10 HEPES, pH 7.4 adjusted using NaOH, including […] of coelenterazine, the intermediate substrate of aequorine, and incubated for 6 hours at 37° C. The system for measuring luminescence consisted of the spectrofluorometer CAF-110 (Jasco) (Hakamata Y. et al., FEBS Lett. 352, (1994), 206-210), which is connected to a luminescence unit PL-03 (Jasco).
(§3) The total amount of aequorine activity was measured, after permeabilisation of the cells with digitonin, in a final concentration of […].

[3] = system: H4 cells; assay: Intracellular calcium (aequorin luminescence) in H4 cells; format: cell-based, human; conditions: H4 neuroglyoma cells
Procedure: as §2, §3

[4] = system: non-injected dyspedic myotubes; assay: Intracellular calcium signal (fluo-3) in non-injected dyspedic myotubes; format: cell-based, mice; conditions: 1 mM caffeine, n=0 out of 20 reacted
Excerpt: as §1

## Cn1c(=O)c2c(ncn2C)n(C)c1=O [caffeine]
[1]
  intracellular calcium signal as a reaction to caffeine: reacts
[2]; caffeine final concentration 10 mM, U373 astrocytoma cells, n=7, listed as Caffeine
  increase in intracellular calcium after addition of caffeine: no effect
[3]; caffeine final concentration 10 mM
  increase in calcium after addition of caffeine: not to caffeine
[4]
  intracellular calcium signal as a reaction to caffeine: do not react; also recorded: no reaction whatsoever

## ryanodine
[2]
  increase in intracellular calcium after addition of ryanodine: reacted
[2]; listed as Ryanodine
  increase in intracellular calcium after addition of ryanodine: triggers temporary calcium fluctuations
[3]; ryanodine 100 mM [sic]
  increase in calcium after addition of ryanodine: reacted
